# Test: log p
# Format: physicochemical
row,Compound,log p
1,CC(Nc1c(-c2c(F)cc(F)cc2F)c(Cl)nc2ncnn12)C(F)(F)F (stereo not drawn) [Example 1],2.87
2,CC(C)C(C)Nc1c(-c2c(F)cc(F)cc2F)c(Cl)nc2ncnn12 (stereo not drawn) [Example 3],3.2
3,CCC(C)Nc1c(-c2ccccc2F)c(Cl)nc2ncnn12 (stereo not drawn) [Example 4],2.73
4,CC(C)(C)CC(C)(C)Nc1c(-c2c(F)cc(F)cc2F)c(Cl)nc2ncnn12 [Example 10],4.32
5,FCCCNc1c(-c2c(F)cc(F)cc2F)c(Cl)nc2ncnn12 [Example 12],2.3
6,C=CCN(C)c1c(-c2ccc(F)cc2F)c(Cl)nc2ncnn12 [Example 14],2.89
7,C=CCN(CC)c1c(-c2ccc(F)cc2F)c(Cl)nc2ncnn12 [Example 15],3.19
8,CC(C)(Nc1c(-c2c(F)c(F)c(F)c(F)c2F)c(Cl)nc2ncnn12)C(F)(F)F [Example 17],3.75
9,CCN(CC)c1c(-c2ccccc2F)c(Cl)nc2ncnn12 [Example 18],2.82
10,CCNc1c(-c2c(F)cc(C(F)(F)F)cc2Cl)c(Cl)nc2ncnn12 [Example 21],3.1
11,CCNc1c(-c2c(F)cccc2F)c(Cl)nc2ncnn12 [Example 24],2.14
12,CC(Nc1c(-c2c(F)cccc2Cl)c(Cl)nc2ncnn12)C(F)(F)F (stereo not drawn) [Example 30],2.85
13,C[C@H](Nc1c(-c2c(Cl)cc(C(F)(F)F)cc2Cl)c(Cl)nc2ncnn12)C(F)(F)F [Example 36],3.79
14,C[C@H](Nc1c(-c2c(Cl)cc(OC(F)(F)F)cc2Cl)c(Cl)nc2ncnn12)C(F)(F)F [Example 37],3.89
15,CSc1cc(F)cc(F)c1-c1c(Cl)nc2ncnn2c1N[C@@H](C)C(F)(F)F [Example 38],3.17
16,C[C@H](Nc1c(-c2cc(C(F)(F)F)ccc2Cl)c(Cl)nc2ncnn12)C(F)(F)F [Example 40],3.4
17,C[C@H](Nc1c(-c2c(F)cc(C(F)(F)F)c(F)c2F)c(Cl)nc2ncnn12)C(F)(F)F [Example 41],3.6
18,C[C@H](Nc1c(-c2ccc(C(F)(F)F)c(F)c2F)c(Cl)nc2ncnn12)C(F)(F)F [Example 42],3.52

row,Compound,log p
1,CC(Nc1c(-c2ccc(F)c(Cl)c2)c(Cl)nc2ncnn12)C(F)(F)F (stereo not drawn) [Example 43],3.18
2,C[C@H](Nc1c(-c2ccc(C(F)(F)F)cc2F)c(Cl)nc2ncnn12)C(F)(F)F [Example 45],3.33
3,CC(Nc1c(-c2ccc(F)cc2Cl)c(Cl)nc2ncnn12)C(F)(F)F (stereo not drawn) [Example 46],3.04
4,CC(Nc1c(-c2c(F)c(F)c(F)c(F)c2F)c(Cl)nc2ncnn12)C(F)(F)F (stereo not drawn) [Example 48],3.3
5,CC(Nc1c(-c2ccccc2F)c(Cl)nc2ncnn12)C(F)(F)F (stereo not drawn) [Example 49],2.69
6,CC(Nc1c(-c2ccccc2Cl)c(Cl)nc2ncnn12)C(F)(F)F (stereo not drawn) [Example 57],2.88
7,C[C@H](Nc1c(-c2ccccc2Cl)c(Cl)nc2ncnn12)C(F)(F)F [Example 58],2.87
8,C[C@H](Nc1c(-c2ccc(F)cc2C(F)(F)F)c(Cl)nc2ncnn12)C(F)(F)F [Example 59],3.07
9,C[C@H](Nc1c(-c2cc(F)ccc2F)c(Cl)nc2ncnn12)C(F)(F)F [Example 62],2.74
10,CC(Nc1c(-c2c(Cl)cc(OC(F)(F)F)cc2Cl)c(Br)nc2ncnn12)C(F)(F)F (stereo not drawn) [Example 65],3.92
11,C[C@H](Nc1c(-c2c(F)cc(F)cc2F)c(Cl)nc2ncnn12)C(C)(C)C [Example 68],3.54
12,CC(C)C(C)Nc1c(-c2ccccc2)c(Cl)nc2ncnn12 (stereo not drawn) [Example 74],3.14
13,C=C(C)CN(CC)c1c(-c2c(F)cc(F)cc2F)c(Cl)nc2ncnn12 [Example 90],3.6
14,C=C(C)CN(CC)c1c(-c2ccc(F)cc2F)c(Cl)nc2ncnn12 [Example 93],3.54
15,C=C(C)CNc1c(-c2c(F)cc(F)cc2F)c(Cl)nc2ncnn12 [Example 94],2.63
16,C=C(C)CN(C)c1c(-c2c(F)cc(C(F)(F)F)cc2Cl)c(Cl)nc2ncnn12 [Example 96],4.05
17,C=C(C)CN(C)c1c(-c2ccc(F)cc2F)c(Cl)nc2ncnn12 [Example 98],3.21
18,C=C(C)CNc1c(-c2c(F)c(F)c(F)c(F)c2F)c(Cl)nc2ncnn12 [Example 104],3.09

# The next lines start with the values.
row,log p,Compound
1,3.54,CC(Nc1c(-c2c(F)cc(F)cc2F)c(Cl)nc2ncnn12)C(C)(C)C (stereo not drawn) [Example 2]
2,2.71,CCC(C)Nc1c(-c2c(F)cccc2F)c(Cl)nc2ncnn12 (stereo not drawn) [Example 5]
3,2.85,CCC(C)Nc1c(-c2ccc(F)cc2F)c(Cl)nc2ncnn12 (stereo not drawn) [Example 6]
4,2.78,CCC(C)Nc1c(-c2ccccc2)c(Cl)nc2ncnn12 (stereo not drawn) [Example 7]
5,3.54,CCC(C)Nc1c(-c2ccc(Cl)cc2Cl)c(Cl)nc2ncnn12 (stereo not drawn) [Example 8]
6,2.94,CCC(C)Nc1c(-c2ccccc2Cl)c(Cl)nc2ncnn12 (stereo not drawn) [Example 9]
7,3.26,CCC(C)CNc1c(-c2c(F)cc(F)cc2F)c(Cl)nc2ncnn12 (stereo not drawn) [Example 11]
8,4.06,C=CCN(CC)c1c(-c2c(F)cc(C(F)(F)F)cc2Cl)c(Cl)nc2ncnn12 [Example 13]
9,3.44,CCN(CC)c1c(-c2c(F)c(F)c(F)c(F)c2F)c(Cl)nc2ncnn12 [Example 22]
10,2.13,CCNc1c(-c2ccccc2F)c(Cl)nc2ncnn12 [Example 23]
11,2.72,CCNc1c(-c2c(F)c(F)c(F)c(F)c2F)c(Cl)nc2ncnn12 [Example 25]
12,3.05,CCN(CC)c1c(-c2c(F)cc(F)cc2F)c(Cl)nc2ncnn12 [Example 26]
13,2.88,CC(Nc1c(-c2c(F)cc(F)cc2F)c(Cl)nc2ncnn12)C(F)(F)F (stereo not drawn) [Example 29]
14,3.55,Cc1cc(C)c(-c2c(Cl)nc3ncnn3c2NC(C)C(F)(F)F)c(C)c1 (stereo not drawn) [Example 35]
15,3.51,C[C@H](Nc1c(-c2cc(C(F)(F)F)ccc2C(F)(F)F)c(Cl)nc2ncnn12)C(F)(F)F [Example 39]
16,3.74,C[C@H](Nc1c(-c2c(Cl)c(F)cc(C(F)(F)F)c2Cl)c(Cl)nc2ncnn12)C(F)(F)F [Example 44]
17,2.64,CC(Nc1c(-c2c(F)cccc2F)c(Cl)nc2ncnn12)C(F)(F)F (stereo not drawn) [Example 47]
18,3.78,C[C@H](Nc1c(-c2cc(SC(F)(F)F)ccc2Cl)c(Cl)nc2ncnn12)C(F)(F)F [Example 50]
19,3.36,C[C@H](Nc1c(-c2cccc(C(F)(F)F)c2Cl)c(Cl)nc2ncnn12)C(F)(F)F [Example 51]
20,2.81,C[C@H](Nc1c(-c2ccc(F)cc2F)c(Cl)nc2ncnn12)C(F)(F)F [Example 52]
21,3.02,C[C@H](Nc1c(-c2c(Cl)cccc2Cl)c(Cl)nc2ncnn12)C(F)(F)F [Example 53]
22,3.16,C[C@H](Nc1c(-c2c(F)cc(F)cc2C(F)(F)F)c(Cl)nc2ncnn12)C(F)(F)F [Example 54]
23,3.16,C[C@H](Nc1c(-c2cccc3c2OC(F)(F)O3)c(Cl)nc2ncnn12)C(F)(F)F [Example 55]
24,3.09,CC(Nc1c(-c2c(F)cc(C(F)(F)F)cc2F)c(Cl)nc2ncnn12)C(F)(F)F (stereo not drawn) [Example 56]
25,2.84,C[C@@H](Nc1c(-c2c(F)cc(F)cc2F)c(Cl)nc2ncnn12)C(F)(F)F [Example 60]
26,3,C[C@@H](Nc1c(-c2ccc(F)cc2Cl)c(Cl)nc2ncnn12)C(F)(F)F [Example 61]

row,log p,Compound
1,2.9,CC(Nc1c(-c2c(F)cc(F)cc2F)c(Br)nc2ncnn12)C(F)(F)F (stereo not drawn) [Example 66]
2,3.53,CC(Nc1c(-c2c(F)cc(F)cc2F)c(Cl)nc2ncnn12)C(C)(C)C (stereo not drawn) [Example 67]
3,3.58,CC(Nc1c(-c2c(F)cccc2Cl)c(Cl)nc2ncnn12)C(C)(C)C (stereo not drawn) [Example 69]
4,3.58,C[C@@H](Nc1c(-c2c(F)cccc2Cl)c(Cl)nc2ncnn12)C(C)(C)C [Example 70]
5,3.63,C[C@H](Nc1c(-c2c(F)cccc2Cl)c(Cl)nc2ncnn12)C(C)(C)C [Example 71]
6,3.38,C[C@@H](Nc1c(-c2cc(F)ccc2F)c(Cl)nc2ncnn12)C(C)(C)C [Example 72]
7,3.2,CC(C)C(C)Nc1c(-c2c(F)cc(F)cc2F)c(Cl)nc2ncnn12 (stereo not drawn) [Example 73]
8,3.17,CC(C)[C@H](C)Nc1c(-c2c(F)cc(F)cc2F)c(Cl)nc2ncnn12 [Example 77]
9,3.05,CC(C)[C@@H](C)Nc1c(-c2cc(F)ccc2F)c(Cl)nc2ncnn12 [Example 78]
10,2.7,Cc1nc2ncnn2c(N[C@H](C)C(C)C)c1-c1c(F)cccc1Cl [Example 79]
11,3.59,CC(C)CC(C)Nc1c(-c2c(F)cc(F)cc2F)c(Cl)nc2ncnn12 (stereo not drawn) [Example 80]
12,3.53,CC(C)CC(C)Nc1c(-c2ccc(F)cc2F)c(Cl)nc2ncnn12 (stereo not drawn) [Example 81]
13,1.84,CNc1c(-c2c(F)cccc2F)c(Cl)nc2ncnn12 [Example 82]
14,2.01,CNc1c(-c2c(F)cc(F)cc2F)c(Cl)nc2ncnn12 [Example 83]
15,2.41,CNc1c(-c2c(F)c(F)c(F)c(F)c2F)c(Cl)nc2ncnn12 [Example 84]
16,2.18,CN(C)c1c(-c2ccccc2F)c(Cl)nc2ncnn12 [Example 85]
17,1.86,CNc1c(-c2ccccc2F)c(Cl)nc2ncnn12 [Example 86]
18,2.19,CN(C)c1c(-c2c(F)cccc2F)c(Cl)nc2ncnn12 [Example 87]
19,2.48,C=C(C)CNc1c(-c2ccccc2F)c(Cl)nc2ncnn12 [Example 91]
20,3.42,C=C(C)CN(CC)c1c(-c2c(F)cccc2F)c(Cl)nc2ncnn12 [Example 95]
21,2.6,C=C(C)CNc1c(-c2ccc(F)cc2F)c(Cl)nc2ncnn12 [Example 97]
22,3.92,C=C(C)CN(CC)c1c(-c2c(Cl)cccc2Cl)c(Cl)nc2ncnn12 [Example 99]
23,4.12,C=C(C)CN(CC)c1c(-c2cc(C(F)(F)F)ccc2Cl)c(Cl)nc2ncnn12 [Example 100]
24,3.9,C=C(C)CN(CC)c1c(-c2cccc3c2OC(F)(F)O3)c(Cl)nc2ncnn12 [Example 101]
25,4.12,C=C(C)CN(CC)c1c(-c2cccc(C(F)(F)F)c2Cl)c(Cl)nc2ncnn12 [Example 102]
